Reference: article PMC5374710, “Discovery of the first dual GSK3β inhibitor/Nrf2 inducer. A new multitarget therapeutic strategy for Alzheimer’s disease” (Scientific Reports, 2017)

System: Nrf2
Test: Luciferase activity in AREc32 cells after scramble or GSK3β siRNA
Format: cell-based, human
Settings: 10 μM, 24 h
Description: To further evaluate the potential relationship between GSK3β inhibition and the Nrf2 induction properties we used two different approaches. […] Cells were treated with compound 5m at increasing concentrations alone or in presence of Li (10 mM) during 24 h and thereafter, luciferase activity was evaluated. […] Secondly, to corroborate the independence of the Nrf2 induction properties of our derivatives from their GSK3β inhibitory properties, we used GSK3β knock down experimental conditions using siRNA. […] After knockdown of GSK3β, AREc32 cells were incubated with compound 5m (10 μM) during 24 h (Fig. 4B). Subsequently, luciferase activity and HO-1 expression were analyzed. […] Similar results were obtained when HO-1 expression was analyzed (Fig. 4D), compound 5m increased HO-1 expression 3.9 times after scramble treatment and 3.5 times after knockdown of GSK3β showing no statistical differences between both conditions. […]
Figure 4 Nrf2 induction properties are independent of the GSK3β inhibitory activity. […] (D) HO-1 expression induced by compound 5m (10 μM) measured at the same experimental conditions used previously. Values are expressed as mean ± SEM of three independent experiments in duplicate. ^###p < 0.001; ^##p < 0.01; ^#p < 0.05 compared to the correspondent basal conditions. […]

SMILES: Cc1[nH]nc2c1C(c1ccc(Br)cc1)C(C#N)=C(N)O2 (centres unmarked) [Compound 5m, 6-Amino-4-(4-bromophenyl)-3-methyl-2,4-dihydropyrano[2,3-c]pyrazole-5-carbonitrile]
- Luciferase activity fold increase compared to basal conditions (GSK3β silenced (siGSK3β)): 2.8 fold
- Luciferase activity fold increase compared to basal conditions (cells previously treated with scramble control siRNA): 2.2 fold
